Experimental data reported in PMC9103351, “Effects of the Bark Resin Extract of Garcinia nigrolineata on Chronic Stress-Induced Memory Deficit in Mice Model and the In Vitro Monoamine Oxidases and β-Amyloid Aggregation Inhibitory Activities of Its Prenylated Xanthone Constituents” (Molecules, 2022).
Where two headings read alike, the source gives them in different places.

Key:
Aβ1-42 = target: T1, Aβ1-42 (Homo sapiens, UniProt P05067); assay: Thioflavin-T assay of Aβ1-42 self-aggregation inhibition; type: biochemical; conditions: for % Inhibition of Aβ Aggregation: Aβ1-42 10 µM, 24 h at 37 °C, Th-T fluorescence; for percent of self-aggregation of Aβ-(1-42): without any compound taken as 100%
T1 construct: Aβ1-42 was dissolved in a 50 mM phosphate buffer (pH 7.4)
Procedure: A thioflavin-T (Th-T) assay was used to evaluate the ability of 1–6 and 8–10, isolated from GN bark resin extract, to inhibit Aβ42 aggregation. The presence of Aβ plaques in the brain appears to be related to cognitive decline and neurodegeneration.
The Thioflavin-T assay used to investigate the Aβ1-42 self-aggregation activity was performed as previously described. Aβ1-42 was dissolved in a 50 mM phosphate buffer (pH 7.4) to obtain a […] stock solution. […] In black and opaque 96-well plates, 2 µL of each compound were added at a concentration of 100 µM. Then, in each well, Aβ1-42 solution was added to give a final concentration of 10 µM and mixed thoroughly. Covered plates were left in the dark for 24 h at 37 °C without agitation. After incubation, each well was loaded with 190 µL of […] ThT in 50 mM glycine/NaOH buffer (pH 8.0), and fluorescence intensities were measured at 446 nm and 490 nm for excitation and emission, respectively. The percent inhibition of each compound was calculated and reported.

recombinant human MAO-B = target: T2, recombinant human MAO-B (Homo sapiens, UniProt P27338); assay: Inhibitory activity on recombinant human MAO-B (kynuramine, fluorescence); type: biochemical; conditions: for isoenzyme selectivity by selectivity index (MAO-B): from Si values; for IC50: recombinant human MAO-B, kynuramine substrate
T2 construct: purchased Sigma-Aldrich
T2 sequence (P27338 1-520): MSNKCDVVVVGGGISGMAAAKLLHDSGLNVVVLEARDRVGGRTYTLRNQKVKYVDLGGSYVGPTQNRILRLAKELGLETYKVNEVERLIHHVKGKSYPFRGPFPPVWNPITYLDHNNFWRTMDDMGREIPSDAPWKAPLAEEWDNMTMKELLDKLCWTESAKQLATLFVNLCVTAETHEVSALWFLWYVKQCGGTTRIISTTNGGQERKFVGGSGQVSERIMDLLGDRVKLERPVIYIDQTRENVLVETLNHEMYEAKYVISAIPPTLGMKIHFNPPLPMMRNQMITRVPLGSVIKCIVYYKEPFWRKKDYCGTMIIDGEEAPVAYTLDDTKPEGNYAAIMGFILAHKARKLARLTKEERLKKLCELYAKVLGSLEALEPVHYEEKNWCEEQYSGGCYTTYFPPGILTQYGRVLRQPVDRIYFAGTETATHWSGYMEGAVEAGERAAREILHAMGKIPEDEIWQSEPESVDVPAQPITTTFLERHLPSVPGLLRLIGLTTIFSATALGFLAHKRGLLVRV
Procedure: (§1) The inhibitory activity assays of the isolated compound with recombinant human MAO-A and MAO-B (Sigma-Aldrich, St. Louis, MO, USA) were carried out with some modification as described recently by. In brief, 1–6 and 8–10 were first dissolved in DMSO to obtain a stock solution with a concentration of 25 mM. The activity was determined by serial dilution of each concentration of the compounds. For the MAO-A inhibitor assay, 4.5 µL of kynuramine (Sigma-Aldrich, St. Louis, MO, USA) were mixed with 234.75 µL of potassium phosphate buffer (100 mM, pH 7.4, made isotonic with KCl, 20.2 mM). Then, 3 µL of kynuramine were mixed with 236.25 µL of potassium phosphate buffer (pH 7.4) for the MAO-B inhibitor assay. The reaction was stopped by adding 400 µL of 2N NaOH and 1000 µL of water. The fluorescence of 4-hydroxyquinoline (Sigma-Aldrich, St. Louis, MO, USA), a by-product of this reaction, was measured with the excitation wavelength at 310 nm and the emission wavelength at 400 nm. The initial rates of MAO-catalyzed kynuramine oxidation were plotted versus the logarithm of the inhibitor concentrations and reported as IC50 values by using the Prism software package (GraphPad Software, version 5, San Diego, CA, USA) to evaluate quantitative. IC50 values were converted to Ki values by using the equation Ki = IC50/(1 + [S]/Km).

recombinant human MAO-A = target: T3, recombinant human MAO-A (Homo sapiens, UniProt P21397); assay: Inhibitory activity on recombinant human MAO-A (kynuramine, fluorescence); type: biochemical; conditions: for Si MAO-A: selective index from Ki values (Ki = IC50/(1 + [S]/Km)), Si = Ki (MAO-B)/Ki (MAO-A)
T3 construct: purchased Sigma-Aldrich
T3 sequence (P21397 1-527): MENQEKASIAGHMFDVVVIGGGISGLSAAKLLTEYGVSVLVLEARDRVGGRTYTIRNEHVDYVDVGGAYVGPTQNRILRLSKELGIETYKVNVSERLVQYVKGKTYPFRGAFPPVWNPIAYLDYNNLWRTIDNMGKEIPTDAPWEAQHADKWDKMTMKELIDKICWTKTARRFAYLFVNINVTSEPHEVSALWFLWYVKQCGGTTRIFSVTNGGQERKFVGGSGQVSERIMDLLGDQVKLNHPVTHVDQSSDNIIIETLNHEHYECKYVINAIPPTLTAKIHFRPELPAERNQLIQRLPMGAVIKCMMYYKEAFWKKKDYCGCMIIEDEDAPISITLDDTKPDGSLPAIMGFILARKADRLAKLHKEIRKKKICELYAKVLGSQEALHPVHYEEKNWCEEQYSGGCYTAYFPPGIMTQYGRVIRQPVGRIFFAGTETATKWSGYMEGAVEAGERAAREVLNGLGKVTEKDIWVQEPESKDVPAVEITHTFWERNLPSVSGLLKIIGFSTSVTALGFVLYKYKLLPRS
Procedure: as §1

Aβ (1-42) = system: Aβ (1-42); set-up: method as in PMID 27038926; conditions: Aβ (1-42) incubated with compound 6 days at 37 °C; cited from earlier work
[1] = selective index from Ki values (Ki = IC50/(1 + [S]/Km)), Si = Ki (MAO-B)/Ki (MAO-A)
[2] = recombinant human MAO-A, kynuramine substrate, read-out: IC50 MAO-A

T1 sequence (P05067 672-713 limits assumed): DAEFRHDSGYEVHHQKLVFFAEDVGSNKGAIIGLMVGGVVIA

SMILES | % Inhibition of Aβ Aggregation (Aβ1-42; compound 100 µM) | percent of self-aggregation of Aβ-(1-42) (Aβ1-42; compound 100 µM) | isoenzyme selectivity by selectivity index (MAO-B) (recombinant human MAO-B) | IC50 (recombinant human MAO-B) | Si MAO-B (recombinant human MAO-B; [1]) | IC50 (recombinant human MAO-A; [2]) | Si MAO-A (recombinant human MAO-A) | amyloid aggregation inhibition (Aβ (1-42)) | Si MAO-B (recombinant human MAO-B) | IC50 (recombinant human MAO-A) | % Inhibition of Aβ Aggregation (Aβ1-42; positive control at 5 µM) | percent of self-aggregation of Aβ-(1-42) (Aβ1-42; positive control at 5 µM)
COc1cc2oc3c(OC)c(O)ccc3c(=O)c2c(O)c1CC=C(C)C [Compound 1, cowagarcinone C] | 46.79 ± 5.46% | 53.21 ± 5.46% | selectivity index on MAO-B | 17.99 ± 0.11 µM | 0.294 | 100.2 ± 0.35 µM | 3.407 | – | – | – | – | –
COc1cc2c(=O)c3c(O)c(C/C=C(\C)CCC=C(C)C)c(O)cc3oc2cc1O [Compound 2, cowaxanthone] | 58.56 ± 3.28% | 41.44 ± 3.28% | – | 238.5 ± 2.03 µM | 3.254 | 119.8 ± 0.75 µM | 0.307 | – | – | – | – | –
COc1c(O)cc2oc3cc(O)c(CC=C(C)C)c(O)c3c(=O)c2c1CC=C(C)C [Compound 3, α-mangostin] | Not detected | – | selectivity index on MAO-B | 40.1 ± 0.89 µM | 0.821 | 79.81 ± 0.5 µM | 1.218 | inhibiting amyloid aggregation | – | – | – | –
COc1cc2oc3cc(O)c(CC=C(C)C)c(O)c3c(=O)c2c(CC=C(C)C)c1OC [Compound 4, cowaxanthone B] | Not detected | – | selectivity index on MAO-B | 15.6 ± 0.26 µM | 0.6333 | 40.21 ± 0.35 µM | 1.579 | – | – | – | – | –
COc1c(O)cc2oc3cc(O)c(CC=C(C)C)c(O)c3c(=O)c2c1C/C=C(\C)CCC=C(C)C [Compound 5, cowanin] | Not detected | – | – | 16.3 ± 1.44 µM | – | – | 0.266 | – | 3.762 | 7.1 ± 0.03 µM | – | –
COc1c(O)cc2oc3cc4c(c(O)c3c(=O)c2c1C/C=C(\C)CCC=C(C)C)C=CC(C)(C)O4 [Compound 6, fuscaxanthone A] | Not detected | – | selectivity index on MAO-B | 0.07 ± 0.01 µM | 0.00179 | 69.92 ± 0.06 µM | 558.273 | – | – | – | – | –
COc1c(O)cc2oc3cc4occc4c(O)c3c(=O)c2c1C/C=C(\C)CCC=C(C)C [Compound 8, xanthochymusxanthone A] | Not detected. | – | – | > 400 µM | 0.6522 | 100.5 ± 0.44 µM | <0.153 | – | – | – | – | –
COc1c(O)c(CC=C(C)C)c2oc3cc(O)c(CC=C(C)C)c(O)c3c(=O)c2c1CC=C(C)C [Compound 9, 7-O-methylgarcinone E] | Not detected | – | selectivity index on MAO-B | 0.4 ± 0.01 µM | 0.0256 | 25.4 ± 0.63 µM | 38.705 | – | – | – | – | –
COc1c(O)c(CC=C(C)C)c2oc3cc(O)c(CC=C(C)C)c(O)c3c(=O)c2c1C/C=C(\C)CCC=C(C)C [Compound 10, cowagarcinone A] | Not detected | – | – | > 400 µM | 183.168 | 3.58 ± 0.02 µM | <0.005 | – | – | – | – | –
COc1cc(/C=C/C(=O)CC(=O)/C=C/c2ccc(O)c(OC)c2)ccc1O [Curcumin, reference compound] | – | – | – | – | – | – | – | – | – | – | 51.73 ± 2.89% | 48.27 ± 2.89%
